The target in this assay is T1, endothelial lipase (EL) (Homo sapiens, UniProt Q9Y5X9).
T1 construct: Conditioned media obtained from HT-1080 cells, which were transformed by RAGE technology (Athersys) to overexpress endogenous EL; endogenous in cells; conditioned medium used as the enzyme source
T1 sequence (Q9Y5X9 21-500): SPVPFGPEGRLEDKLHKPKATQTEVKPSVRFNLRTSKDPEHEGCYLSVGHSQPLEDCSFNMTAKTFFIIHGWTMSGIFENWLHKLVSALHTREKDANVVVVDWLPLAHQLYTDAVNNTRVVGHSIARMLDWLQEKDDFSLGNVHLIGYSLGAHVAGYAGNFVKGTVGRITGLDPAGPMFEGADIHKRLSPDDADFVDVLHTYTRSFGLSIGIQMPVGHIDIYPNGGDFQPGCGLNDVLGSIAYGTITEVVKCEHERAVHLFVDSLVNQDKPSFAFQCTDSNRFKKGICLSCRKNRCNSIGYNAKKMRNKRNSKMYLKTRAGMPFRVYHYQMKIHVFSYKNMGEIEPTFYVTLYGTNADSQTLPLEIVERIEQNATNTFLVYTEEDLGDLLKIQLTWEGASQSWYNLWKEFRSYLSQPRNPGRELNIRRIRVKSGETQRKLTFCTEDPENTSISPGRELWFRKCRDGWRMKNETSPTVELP
Put plainly: Endothelial lipase (EL) enzymatic assay with fluorescent substrate A10070 in DMPG vesicles. Particulars: conditioned media from HT-1080 cells overexpressing endogenous EL; 20 min preincubation at 37° C.; read-out: HLE_EL_CRC IC50. Type of assay: biochemical. How it is done:
Endothelial lipase activity was measured using a fluorescent substrate, A10070, (Invitrogen, CA) doped into an artificial vesicle containing DMPG (Avanti Polar Lipids) as the excipient. Vesicles were prepared by combining 285 uL of 1 mM DMPG in a 1:1 mixture of MeOH and CHCl3 with 15 uL of 1 mM A10070 in a 1:1 mixture of MeOH and CHCl3. The mixture was dried under nitrogen and resuspended in 150 uL of 50 mM HEPES pH 8.0 buffer containing 100 mM NaCl and 0.2 mM EDTA. The sample was allowed to sit at rt for 15 min and then was sonicated 3×4 mins on ice with a Branson Sonicator using duty cycle 1. This preparation provides vesicles with a mole fraction of 0.05 for the FRET substrate.
The enzymatic assay was measured using white, opaque 96-well half area plates. Each well contained 60 uL of assay buffer (50 mM HEPES pH 8.0, 50 mM NaCl and 1 mM CaCl2) and 2 ul of a DMSO solution containing compound of interest. Conditioned media obtained from HT-1080 cells, which were transformed by RAGE technology (Athersys) to overexpress endogenous EL, was added and the reaction was allowed to incubate for 20 min at 37° C. with gentle agitation. The reaction was started by the addition of 20 uL of a 1:4 dilution of vesicles. The final total reaction volume was 100 uL. The reaction rates were measured on a Gemini plate reader with an excitation wavelength of 488 nm and a emission of 530 nm. Readings were taken every 20 seconds for 10 min with agitation between each reading. The slope of the linear portion of the readout was used to calculate the rate of the reaction.

As to `Cn1c(-c2cc(F)cc(C(F)(F)F)c2)cc(C(=O)NCCc2ccc(C(F)(F)F)cc2)c(O)c1=O` [Example 60, 6-(3-fluoro-5-(trifluoromethyl)phenyl)-3-hydroxy-1-methyl-2-oxo-N-(4-(trifluoromethyl)phenethyl)-1,2-dihydropyridine-4-carboxamide], the IC50 was 198 nM. Then `Cn1c(-c2cc(F)cc(C(F)(F)F)c2)cc(C(=O)NCCCOc2ccccc2Cl)c(O)c1=O` [Example 48, N-(3-(2-chlorophenoxy)propyl)-6-(3-fluoro-5-(trifluoromethyl)phenyl)-3-hydroxy-1-methyl-2-oxo-1,2-dihydropyridine-4-carboxamide], with < 10 nM; and `COC(=O)c1cccc(OCCCNC(=O)c2cc(-c3cc(F)cc(C(F)(F)F)c3)n(C)c(=O)c2O)c1` [Example 71, methyl 3-(3-(6-(3-fluoro-5-(trifluoromethyl)phenyl)-3-hydroxy-1-methyl-2-oxo-1,2-dihydropyridine-4-carboxamido)propoxy)benzoate], with < 10 nM; and `COc1ccc(CNc2c(C(=O)NCCCc3ccc(Cl)c(Cl)c3)ccn(C)c2=O)cc1` [Example 186, (3-(3,4-dichlorophenyl)propyl)-3-(4-methoxybenzylamino)-1-methyl-2-oxo-1,2-dihydropyridine-4-carboxamide], with 172 nM. Then `Cn1ccc(C(=O)NCCc2ccc(C(F)(F)F)cc2)c(O)c1=O` [Example 136, 3-hydroxy-1-methyl-2-oxo-N-(4-(trifluoromethyl)phenethyl)-1,2-dihydropyridine-4-carboxamide], with 2200 nM.

Broadly, the IC50 is the concentration at which inhibition is half-maximal.
